Experimental data reported in ChEMBL document CHEMBL4725440, “Peptoid NPhe in AGRP-Based c[Pro-Arg-Phe-Phe-Xxx-Ala-Phe-DPro] Scaffolds Maintain Mouse MC4R Antagonist Potency” (ACS Med Chem Lett, 2020).
pEC50: −log10 of the molar value. Where a SMILES comes first, the peptide text is derived from it.

What was measured:
Assay type in all cases: functional
[1] = target: Melanocyte-stimulating hormone receptor (Mus musculus, UniProt Q01727); test: Agonist activity at mouse MC1R by alphascreen cAMP assay
Melanocortin receptor 3 [2] = target: T1, Melanocortin receptor 3 (Mus musculus, UniProt P33033); test: Agonist activity at mouse MC3R by alphascreen cAMP assay
Melanocortin receptor 3 [3] = target: T1, Melanocortin receptor 3; test: Antagonist activity at mouse MC3R assessed as antagonist potency by alphascreen cAMP assay; settings: read-out: pA2 (converted)
Melanocortin receptor 4 [4] = target: T2, Melanocortin receptor 4 (Mus musculus, UniProt P56450); test: Agonist activity at mouse MC4R by alphascreen cAMP assay
Melanocortin receptor 4 [5] = target: T2, Melanocortin receptor 4; test: Antagonist activity at mouse MC4R assessed as antagonist potency by alphascreen cAMP assay; settings: read-out: pA2 (converted)
Melanocortin receptor 5 = Melanocortin receptor 5 (Mus musculus, UniProt P41149); test: Agonist activity at mouse MC5R by alphascreen cAMP assay
[6] = target: Melanocyte-stimulating hormone receptor (Mus musculus) (UniProt Q01727); test: Agonist activity at mouse MC1R at 100 uM by alphascreen cAMP assay relative to NDP-MSH; settings: filed as partial agonist
[7] = target: Melanocortin receptor 5 (Mus musculus) (UniProt P41149); test: Agonist activity at mouse MC5R at 100 uM by alphascreen cAMP assay relative to control
[8] = target: Melanocortin receptor 3 (Mus musculus) (UniProt P33033); test: Agonist activity at mouse MC3R at 100 uM by alphascreen cAMP assay relative to control
Sequence of Melanocortin receptor 3 (Mus musculus) (P33033 whole entry): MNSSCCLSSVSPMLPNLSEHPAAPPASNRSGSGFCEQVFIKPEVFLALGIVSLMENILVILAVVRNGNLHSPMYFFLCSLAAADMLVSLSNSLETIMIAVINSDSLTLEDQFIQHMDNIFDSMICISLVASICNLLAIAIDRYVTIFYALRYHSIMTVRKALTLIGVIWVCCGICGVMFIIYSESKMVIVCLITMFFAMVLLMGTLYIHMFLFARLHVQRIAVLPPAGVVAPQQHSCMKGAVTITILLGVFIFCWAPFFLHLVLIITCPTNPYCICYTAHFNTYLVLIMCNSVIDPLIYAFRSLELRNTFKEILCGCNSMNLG

Sequence of Melanocyte-stimulating hormone receptor (Q01727 whole entry): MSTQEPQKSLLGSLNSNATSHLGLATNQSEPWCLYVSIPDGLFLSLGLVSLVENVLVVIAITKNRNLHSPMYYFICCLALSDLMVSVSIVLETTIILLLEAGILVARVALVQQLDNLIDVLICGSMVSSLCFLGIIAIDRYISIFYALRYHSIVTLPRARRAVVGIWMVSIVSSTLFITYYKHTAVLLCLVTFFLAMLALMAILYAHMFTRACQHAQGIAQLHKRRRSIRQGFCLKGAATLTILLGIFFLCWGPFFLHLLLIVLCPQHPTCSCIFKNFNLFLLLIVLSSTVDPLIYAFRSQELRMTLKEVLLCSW
Sequence of Melanocyte-stimulating hormone receptor (Mus musculus) (Q01727 whole entry, looked up): as the sequence (Q01727 whole entry) above
T1 sequence (P33033 whole entry): as the sequence (P33033 whole entry) above
Sequence of Melanocortin receptor 5 (Mus musculus) (P41149 whole entry): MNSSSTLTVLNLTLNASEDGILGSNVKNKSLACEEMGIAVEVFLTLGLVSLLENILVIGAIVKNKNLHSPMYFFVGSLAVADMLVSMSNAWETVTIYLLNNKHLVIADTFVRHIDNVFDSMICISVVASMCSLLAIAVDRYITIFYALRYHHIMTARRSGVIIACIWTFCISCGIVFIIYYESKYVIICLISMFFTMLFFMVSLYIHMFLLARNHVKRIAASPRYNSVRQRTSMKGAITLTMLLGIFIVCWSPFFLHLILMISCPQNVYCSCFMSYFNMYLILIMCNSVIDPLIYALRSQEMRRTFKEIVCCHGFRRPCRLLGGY
Sequence of Melanocortin receptor 5 (P41149 whole entry): as above
T2 sequence (P56450 whole entry): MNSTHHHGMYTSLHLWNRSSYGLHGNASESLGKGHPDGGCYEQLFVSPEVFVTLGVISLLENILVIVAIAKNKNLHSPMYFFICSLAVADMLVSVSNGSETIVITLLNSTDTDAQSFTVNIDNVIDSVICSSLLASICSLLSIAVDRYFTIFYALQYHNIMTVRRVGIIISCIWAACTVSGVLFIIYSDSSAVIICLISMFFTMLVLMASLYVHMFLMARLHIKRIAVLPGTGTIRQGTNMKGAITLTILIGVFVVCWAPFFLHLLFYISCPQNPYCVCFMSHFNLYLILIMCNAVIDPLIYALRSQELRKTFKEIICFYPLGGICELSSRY

SMILES	pEC50 [1]	pEC50 (Melanocortin receptor 3 [2])	Kb (Melanocortin receptor 3 [3])	pEC50 (Melanocortin receptor 4 [4])	Kb (Melanocortin receptor 4 [5])	pEC50 (Melanocortin receptor 5)	Activity [6]	Activity ([7]; filed as inverse agonist)	Activity ([8]; filed as agonist)	Activity ([7]; filed as partial agonist)	Activity [8]
CN1CC(=O)N[C@@H](Cc2ccccc2)C(=O)N2CCC[C@@H]2C(=O)N2CCC[C@H]2C(=O)N[C@@H](CCCNC(=N)N)C(=O)N[C@@H](Cc2ccccc2)C(=O)N[C@@H](Cc2ccccc2)C(=O)N[C@@H](CN)C1=O	< 4.00	< 4.00	2.51 µM	< 4.00	0.794 µM	< 4.00	–	–	–	–	–
C[C@@H]1NC(=O)CN(CCN)C(=O)[C@H](Cc2ccccc2)NC(=O)[C@H](Cc2ccccc2)NC(=O)[C@H](CCCNC(=N)N)NC(=O)[C@@H]2CCCN2C(=O)[C@H]2CCCN2C(=O)[C@H](Cc2ccccc2)NC1=O	–	< 4.00	0.126 µM	< 4.00	0.00398 µM	–	60%	10%	–	–	–
C[C@@H]1NC(=O)[C@H](CC(N)=O)NC(=O)[C@H](Cc2ccccc2)NC(=O)CN(Cc2ccccc2)C(=O)[C@H](CCCNC(=N)N)NC(=O)[C@@H]2CCCN2C(=O)[C@H]2CCCN2C(=O)[C@H](Cc2ccccc2)NC1=O	–	< 4.00	–	< 4.00	> 3.16 µM	–	–	10%	–	–	–
C[C@@H]1NC(=O)[C@H](CN)NC(=O)[C@H](Cc2ccccc2)NC(=O)[C@H](Cc2ccccc2)NC(=O)CN(CCCNC(=N)N)C(=O)[C@@H]2CCCN2C(=O)[C@H]2CCCN2C(=O)[C@H](Cc2ccccc2)NC1=O (HELM PEPTIDE1{[N=C(N)NCCCN(CC(=O)[*:2])[*:1]].F.F.[NC[C@H](N[*:1])C(=O)[*:2]].A.F.[dP].P}$PEPTIDE1,PEPTIDE1,1:R1-8:R2$$$V2.0)	< 4.00	< 4.00	1.26 µM	< 4.00	> 3.16 µM	< 4.00	–	–	–	–	–
C[C@@H]1NC(=O)[C@H](CC(N)=O)NC(=O)CN(Cc2ccccc2)C(=O)[C@H](Cc2ccccc2)NC(=O)[C@H](CCCNC(=N)N)NC(=O)[C@@H]2CCCN2C(=O)[C@H]2CCCN2C(=O)[C@H](Cc2ccccc2)NC1=O	–	< 4.00	–	< 4.00	–	–	70%	10%	–	–	–
C[C@@H]1NC(=O)[C@H](CC(N)=O)NC(=O)[C@H](Cc2ccccc2)NC(=O)[C@H](Cc2ccccc2)NC(=O)CN(CCCNC(=N)N)C(=O)[C@@H]2CCCN2C(=O)[C@H]2CCCN2C(=O)[C@H](Cc2ccccc2)NC1=O (HELM PEPTIDE1{P.[N=C(N)NCCCN(CC(=O)[*:2])[*:1]].F.F.N.A.F.[dP]}$PEPTIDE1,PEPTIDE1,1:R1-8:R2$$$V2.0)	–	< 4.00	> 3.16 µM	< 4.00	> 3.16 µM	< 4.00	50%	–	–	–	–
C[C@@H]1NC(=O)[C@H](CC(N)=O)NC(=O)[C@H](Cc2ccccc2)NC(=O)[C@H](Cc2ccccc2)NC(=O)[C@H](CCCNC(=N)N)NC(=O)[C@@H]2CCCN2C(=O)[C@H]2CCCN2C(=O)CN(Cc2ccccc2)C1=O	–	–	> 3.16 µM	< 4.00	> 3.16 µM	< 4.00	85%	–	60%	–	–
C[C@@H]1NC(=O)[C@H](CN)NC(=O)[C@H](Cc2ccccc2)NC(=O)CN(Cc2ccccc2)C(=O)[C@H](CCCNC(=N)N)NC(=O)[C@@H]2CCCN2C(=O)[C@H]2CCCN2C(=O)[C@H](Cc2ccccc2)NC1=O	–	< 4.00	–	< 4.00	–	–	80%	–	–	70%	–
C[C@@H]1NC(=O)[C@H](CN)NC(=O)[C@H](Cc2ccccc2)NC(=O)[C@H](Cc2ccccc2)NC(=O)[C@H](CCCNC(=N)N)NC(=O)[C@@H]2CCCN2C(=O)[C@H]2CCCN2C(=O)[C@H](Cc2ccccc2)NC1=O	–	–	–	–	–	–	–	10%	–	–	20%
C[C@@H]1NC(=O)[C@H](CN)NC(=O)CN(Cc2ccccc2)C(=O)[C@H](Cc2ccccc2)NC(=O)[C@H](CCCNC(=N)N)NC(=O)[C@@H]2CCCN2C(=O)[C@H]2CCCN2C(=O)[C@H](Cc2ccccc2)NC1=O	–	< 4.00	–	< 4.00	–	–	60%	10%	–	–	–
CN1CC(=O)N[C@@H](Cc2ccccc2)C(=O)N2CCC[C@@H]2C(=O)N2CCC[C@H]2C(=O)N[C@@H](CCCNC(=N)N)C(=O)N[C@@H](Cc2ccccc2)C(=O)N[C@@H](Cc2ccccc2)C(=O)N[C@@H](CC(N)=O)C1=O (HELM PEPTIDE1{P.R.F.F.N.[Sar].F.[dP]}$PEPTIDE1,PEPTIDE1,1:R1-8:R2$$$V2.0)	–	< 4.00	> 3.16 µM	< 4.00	> 3.16 µM	< 4.00	–	–	–	–	–
C[C@@H]1NC(=O)[C@H](CN)NC(=O)[C@H](Cc2ccccc2)NC(=O)[C@H](Cc2ccccc2)NC(=O)[C@H](CCCNC(=N)N)NC(=O)[C@@H]2CCCN2C(=O)[C@H]2CCCN2C(=O)CN(Cc2ccccc2)C1=O	< 4.00	< 4.00	3.16 µM	< 4.00	0.251 µM	–	–	10%	–	–	–
